Results reported in article PMC11729640, “Synthesis and evaluation of 6-arylaminobenzamides as positron emission tomography imaging ligands for the sphingosine-1-phosphate-5 receptor” (RSC Medicinal Chemistry, 2025).

Legend:
[1] = test system: rat brain; experiment: Pilot PET in vivo imaging in naïve rats; set-up: species or system Sprague–Dawley rats; conditions: intravenous bolus, n = 3
Method: Following successful preparation of [^18F]TEFM78, PET imaging with rodents was next conducted. On intravenous bolus administration of [^18F]TEFM78, there was rapid uptake of the radiotracer into the rat brain (Fig. 3a), followed by clearance within 20 minutes of the scan starting (Fig. 3b). […] The biodistribution and kinetics of the spinal cord were different from the brain with a lower peak radiotracer uptake but slower clearance (Fig. 3b). […] Typically, low free fraction of compounds can limit brain penetration. However, as shown in the PET images presented in Fig. 3, despite low free fraction, brain penetration of [^18F]TEFM78 is successfully achieved. […]
Fig. 3 Brain and spinal cord kinetics of [^18F]TEFM78 in naïve rats. […] Data expressed as SUV and presented as mean ± SEM, n = 3.
All animal procedures were performed in accordance with the guidelines for care and use of laboratory animals of Edinburgh University and experiments were approved by the Home Office under the Animals (Scientific Procedures) Act 1986, UK. […] Once the PET scans were reconstructed, data was analysed using PMOD image analysis software (PMOD Technologies LLC, Zürich, Switzerland). […] Time activity curves (TACs) were created for each region and PET data expressed as standard uptake value (SUV), calculated as radioactive concentration in the VOI divided by the injected dose and animal's weight.

[2] = Stability of radiotracer by radio-HPLC and radio-TLC; assay type: physicochemical
Description: On identification of TEFM78 as the lead compound, a synthetic route to access a suitable precursor for late stage radiofluorination was developed (Scheme 3). Our approach focused on the synthesis of a 6-arylaminobenzamide that could undergo late-stage functionalisation at the 4′-position for subsequent radiofluorination. Nucleophilic aromatic substitution of 9b with 2,6-dimethylaniline (18), followed by Ullmann coupling and amidation gave benzamide 21 in 81% yield over the three steps. Activation of the electron-rich aniline ring was achieved using silver(I) triflimide-catalysed iodination.[17] Following optimisation (solvent and reaction time), this gave 22 in 54% yield. Subsequent Pd(0)-catalysed stannylation gave trimethyltin precursor 23 in 84% yield. The radiosynthesis of [^18F]TEFM78 was then performed using a TRACERlab FXFN automated synthesiser. No-carrier-added [^18F]fluoride from the cyclotron was trapped on a carbonate-pre-conditioned quaternary methyl ammonium (QMA) cartridge, eluted into the reaction vessel and then azeotropically dried. […]
Analytical HPLC was carried out on a Thermo Dionex Ulimate system 3000 equipped with a Berthold FlowStar LB 513 radio flow detector and a DAD-3000 UV detector. […] The nonradioactive standards were detected using a UV wavelength of 254 nm.

peak standard uptake value (SUV) in the brain [1]: 3 g/mL
radiochemical purity (RCP) ten hours after production (stability) [2]: > 99%
Compound: COc1c(C)ccc(Nc2c(C)cc([18F])cc2C)c1C(N)=O [[^18F]TEFM78]
